The source of these data is patent publication US20170057955A1, “Pyridopyrimidinone Compounds for Modulating the Catalytic Activity of Histone Lysine Demethylases (KDMs)” (Dong-A Socio Holdings Co., Ltd., priority 2015, published 2017).

Structures are written as SMILES.

For the experiment, the target named is T1, Recombinant human JARID1B/KDM5B (Homo sapiens, UniProt Q9UGL1).
T1 construct: purchased Active Motif 31432; host or cells: Sf9 insect cells
T1 sequence (Q9UGL1 whole entry): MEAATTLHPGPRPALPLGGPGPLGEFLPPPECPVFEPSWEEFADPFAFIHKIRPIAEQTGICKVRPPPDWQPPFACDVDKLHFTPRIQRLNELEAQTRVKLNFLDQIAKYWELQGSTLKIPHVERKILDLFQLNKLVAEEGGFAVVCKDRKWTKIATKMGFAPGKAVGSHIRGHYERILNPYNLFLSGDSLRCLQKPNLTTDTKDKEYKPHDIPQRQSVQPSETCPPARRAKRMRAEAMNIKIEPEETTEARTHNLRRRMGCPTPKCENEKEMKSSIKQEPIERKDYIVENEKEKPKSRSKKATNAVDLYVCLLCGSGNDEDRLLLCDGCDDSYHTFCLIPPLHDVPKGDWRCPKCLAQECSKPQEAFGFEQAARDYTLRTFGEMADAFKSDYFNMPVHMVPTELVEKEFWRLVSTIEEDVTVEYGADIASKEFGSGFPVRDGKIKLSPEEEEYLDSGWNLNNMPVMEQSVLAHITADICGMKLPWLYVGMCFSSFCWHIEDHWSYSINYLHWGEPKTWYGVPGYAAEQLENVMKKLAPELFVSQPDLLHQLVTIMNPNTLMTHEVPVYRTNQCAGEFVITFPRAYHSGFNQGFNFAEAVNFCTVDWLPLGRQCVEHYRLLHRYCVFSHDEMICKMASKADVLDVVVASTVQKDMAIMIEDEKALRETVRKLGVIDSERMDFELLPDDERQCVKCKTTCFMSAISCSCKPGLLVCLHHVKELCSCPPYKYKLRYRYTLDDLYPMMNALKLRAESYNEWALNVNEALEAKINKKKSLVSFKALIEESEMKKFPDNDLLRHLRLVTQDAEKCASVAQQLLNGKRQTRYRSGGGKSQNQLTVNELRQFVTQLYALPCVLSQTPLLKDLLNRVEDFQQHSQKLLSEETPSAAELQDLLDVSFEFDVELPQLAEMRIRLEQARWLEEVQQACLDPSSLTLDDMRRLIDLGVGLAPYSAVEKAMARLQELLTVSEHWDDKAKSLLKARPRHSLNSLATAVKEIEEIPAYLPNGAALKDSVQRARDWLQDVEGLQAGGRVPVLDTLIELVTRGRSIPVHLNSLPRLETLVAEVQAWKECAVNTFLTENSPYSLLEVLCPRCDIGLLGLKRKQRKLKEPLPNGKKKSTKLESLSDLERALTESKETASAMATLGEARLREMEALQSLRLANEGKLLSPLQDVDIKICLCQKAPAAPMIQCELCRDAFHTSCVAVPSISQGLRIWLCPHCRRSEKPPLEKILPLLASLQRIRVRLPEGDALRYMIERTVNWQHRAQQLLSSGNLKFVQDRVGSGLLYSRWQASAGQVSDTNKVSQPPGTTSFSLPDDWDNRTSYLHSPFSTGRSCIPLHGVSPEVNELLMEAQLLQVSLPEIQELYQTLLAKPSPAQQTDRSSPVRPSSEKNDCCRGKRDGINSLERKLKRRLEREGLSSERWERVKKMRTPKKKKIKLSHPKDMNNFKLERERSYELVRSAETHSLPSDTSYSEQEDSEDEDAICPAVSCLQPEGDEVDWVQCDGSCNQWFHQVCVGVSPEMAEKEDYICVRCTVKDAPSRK
Put plainly: LANCE Ultra TR-FRET JARID1B (KDM5B) demethylase inhibition assay. The format is biochemical. The following applies: 0.1 uM of test-compounds, FLAG-JARID1B, 500 nM biotinylated H3K4me3 peptide substrate, 30 min at room temperature. In outline:
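FLAG-tagged JARID1B from Sf9 cells, pre-incubated 5 min with 0.1 uM compound (1% DMSO), then 500 nM biotinylated H3K4me3 peptide, 500 uM 2-OG, 25 uM Fe(II), 2 mM ascorbate in pH 7.5 Hepes buffer. After 30 min at room temperature, H3K4me2/1 product detected by TR-FRET (665/590 nm ratio).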
On to `CCC(O)CNc1nc(-c2nccc3c(=O)[nH]c(COCc4ccccc4)nc23)cs1` (centres unmarked) [Compound 143, 2-((benzyloxy)methyl)-8-(2-((2-hydroxybutyl)amino)thiazol-4-yl)pyrido[3,4-d]pyrimidin-4(3H)-one], for which the inhibition at 0.1 µM lay within 20 to 50%. The result for `O=c1[nH]c(COCc2ccccc2)nc2c(-c3csc(NC4CCN(Cc5ccccc5)CC4)n3)nccc12` [Compound 144, 2-((benzyloxy)methyl)-8-(2-((1-benzylpiperidin-4-yl)amino)thiazol-4-yl)pyrido[3,4-d]pyrimidin-4(3H)-one] reads below 20%. For `O=c1[nH]c(COCc2ccccc2)nc2c(-c3csc(NCC4CCN(Cc5ccccc5)CC4)n3)nccc12` [Compound 145, 2-((benzyloxy)methyl)-8-(2-(((1-benzylpiperidin-4-yl)methyl)amino)thiazol-4-yl)pyrido[3,4-d]pyrimidin-4(3H)-one], the inhibition at 0.1 µM is below 20%. Turning to `COCCNc1nc(-c2nccc3c(=O)[nH]c(COCc4ccccc4)nc23)cs1` [Compound 146, 2-((benzyloxy)methyl)-8-(2-((2-methoxyethyl)amino)thiazol-4-yl)pyrido[3,4-d]pyrimidin-4(3H)-one], the inhibition at 0.1 µM was below 20%.

For the compound `O=c1[nH]c(COCc2ccccc2)nc2c(-c3csc(NCCCO)n3)nccc12` [Compound 147, 2-((benzyloxy)methyl)-8-(2-((3-hydroxypropyl)amino)thiazol-4-yl)pyrido[3,4-d]pyrimidin-4(3H)-one], the inhibition at 0.1 µM is below 20%.

`CN(C)CCNc1nc(-c2nccc3c(=O)[nH]c(COCc4ccccc4)nc23)cs1` [Compound 148, 2-((benzyloxy)methyl)-8-(2-((2-(dimethylamino)ethyl)amino)thiazol-4-yl)pyrido[3,4-d]pyrimidin-4(3H)-one]: the inhibition at 0.1 µM is below 20%. Then `NCCNc1nc(-c2nccc3c(=O)[nH]c(COCc4ccccc4)nc23)cs1` [Compound 149, 8-(2-((2-aminoethyl)amino)thiazol-4-yl)-2-((benzyloxy)methyl)pyrido [3,4-d]pyrimidin-4(3H)-one], with 20 to 50%; and `CN(C)CCCNc1nc(-c2nccc3c(=O)[nH]c(COCc4ccccc4)nc23)cs1` [Compound 150, 2-((benzyloxy)methyl)-8-(2-((3-(dimethylamino)propyl)amino)thiazol-4-yl)pyrido[3,4-d]pyrimidin-4(3H)-one], with below 20%. Then `CN1CCN(CCNc2nc(-c3nccc4c(=O)[nH]c(COCc5ccccc5)nc34)cs2)CC1` [Compound 151, 2-((benzyloxy)methyl)-8-(2-((2-(4-methylpiperazin-1-yl)ethyl)amino)thiazol-4-yl)pyrido[3,4-d]pyrimidin-4(3H)-one], with below 20%. For the compound `CN1CCCC1CCNc1nc(-c2nccc3c(=O)[nH]c(COCc4ccccc4)nc23)cs1` (centres unmarked) [Compound 152, 2-((benzyloxy)methyl)-8-(2-((2-(1-methylpyrrolidin-2-yl)ethyl)amino)thiazol-4-yl)pyrido[3,4-d]pyrimidin-4(3H)-one], the inhibition at 0.1 µM was below 20%. Then `O=c1[nH]c(COCc2ccccc2)nc2c(-c3csc(NCC4CCN(CCO)CC4)n3)nccc12` [Compound 153, 2-((benzyloxy)methyl)-8-(2-(((1-(2-hydroxyethyl)piperidin-4-yl)methyl)amino)thiazol-4-yl)pyrido[3,4-d]pyrimidin-4(3H)-one], with below 20%; and `COCCN1CCC(CNc2nc(-c3nccc4c(=O)[nH]c(COCc5ccccc5)nc34)cs2)CC1` [Compound 154, 2-((benzyloxy)methyl)-8-(2-(((1-(2-methoxyethyl)piperidin-4-yl)methyl)amino)thiazol-4-yl)pyrido[3,4-d]pyrimidin-4(3H)-one], with below 20%; and `CN1CCC(Nc2nc(-c3nccc4c(=O)[nH]c(COCc5ccccc5)nc34)cs2)CC1` [Compound 155, 2-((benzyloxy)methyl)-8-(2-((1-methylpiperidin-4-yl)amino)thiazol-4-yl)pyrido[3,4-d]pyrimidin-4(3H)-one], with 20 to 50%.

Turning to `O=c1[nH]c(COc2cccc(-c3ccccc3)c2)nc2c(-c3csc(NCCO)n3)nccc12` [Compound 156, 2-(([1,1′-biphenyl]-3-yloxy)methyl)-8-(2-((2-hydroxyethyl)amino)thiazol-4-yl)pyrido[3,4-d]pyrimidin-4(3H)-one], the inhibition at 0.1 µM fell in the range of 20 to 50%. Then `O=c1[nH]c(COc2ccc(Oc3ccccc3)cc2)nc2c(-c3csc(NCCO)n3)nccc12` [Compound 157, 8-(2-((2-hydroxyethyl)amino)thiazol-4-yl)-2-((4-phenoxyphenoxy)methyl) pyrido[3,4-d]pyrimidin-4(3H)-one], with below 20%; and `CC(C)(c1ccccc1)c1ccc(OCc2nc3c(-c4csc(NCCO)n4)nccc3c(=O)[nH]2)cc1` [Compound 158, 8-(2-((2-hydroxyethyl)amino)thiazol-4-yl)-2-((4-(2-phenylpropan-2-yl)phenoxy)methyl)pyrido [3,4-d]pyrimidin-4(3H)-one], with below 20%; and `O=c1[nH]c(COc2ccc(C3CCCC3)cc2)nc2c(-c3csc(NCCO)n3)nccc12` [Compound 159, 2-((4-cyclopentylphenoxy)methyl)-8-(2-((2-hydroxyethyl)amino)thiazol-4-yl)pyrido[3,4-d]pyrimidin-4(3H)-one], with below 20%. The result for `O=C(c1ccccc1)c1ccc(OCc2nc3c(-c4csc(NCCO)n4)nccc3c(=O)[nH]2)cc1` [Compound 160, 2-((4-benzoylphenoxy)methyl)-8-(2-((2-hydroxyethyl)amino)thiazol-4-yl)pyrido[3,4-d]pyrimidin-4(3H)-one] reads 20 to 50%; that for `O=c1[nH]c(CCc2ccccc2)nc2c(-c3csc(NCCO)n3)nccc12` [Compound 161, 8-(2-((2-hydroxyethyl)amino)thiazol-4-yl)-2-phenethylpyrido[3,4-d]pyrimidin-4(3H)-one], 20 to 50%. The result for `CN(C)CCNc1nc(-c2nccc3c(=O)[nH]c(CCc4ccccc4)nc23)cs1` [Compound 162, 8-(2-((2-(dimethylamino)ethyl)amino)thiazol-4-yl)-2-phenethylpyrido[3,4-d]pyrimidin-4(3H)-one] reads 20 to 50%; that for `CN1CCC(Nc2nc(-c3nccc4c(=O)[nH]c(CCc5ccccc5)nc34)cs2)CC1` [Compound 163, 8-(2-((1-methylpiperidin-4-yl)amino)thiazol-4-yl)-2-phenethylpyrido[3,4-d]pyrimidin-4(3H)-one], 20 to 50%. On to `O=c1[nH]c(CCc2ccccc2)nc2c(-c3csc(NC4CCN(Cc5ccccc5)CC4)n3)nccc12` [Compound 164, 8-(2-((1-benzylpiperidin-4-yl)amino)thiazol-4-yl)-2-phenethylpyrido[3,4-d]pyrimidin-4(3H)-one], for which the inhibition at 0.1 µM was at least 50%.

For the compound `Nc1nc(-c2nccc3c(=O)[nH]c(CCc4ccc(F)cc4)nc23)cs1` [Compound 165, 8-(2-aminothiazol-4-yl)-2-(4-fluorophenethyl)pyrido[3,4-d]pyrimidin-4(3H)-one], the inhibition at 0.1 µM lay in the range of 20 to 50%.

On to `Nc1nc(-c2nccc3c(=O)[nH]c(CCCc4ccccc4)nc23)cs1` [Compound 166, 8-(2-aminothiazol-4-yl)-2-(3-phenylpropyl)pyrido[3,4-d]pyrimidin-4(3H)-one], for which the inhibition at 0.1 µM was in the range of 20 to 50%. The result for `O=c1[nH]c(-c2cc3ccccc3o2)nc2c(-c3csc(NCCO)n3)nccc12` [Compound 167, 2-(benzofuran-2-yl)-8-(2-((2-hydroxyethyl)amino)thiazol-4-yl)pyrido[3,4-d]pyrimidin-4(3H)-one] reads 20 to 50%. The result for `C[C@H](O)CNc1nc(-c2nccc3c(=O)[nH]c(-c4cc5ccccc5o4)nc23)cs1` [Compound 168, (S)-2-(benzofuran-2-yl)-8-(2-((2-hydroxypropyl)amino)thiazol-4-yl)pyrido[3,4-d]pyrimidin-4(3H)-one] reads below 20%.

What is called inhibition is the relative decrease from the control value, in per cent.
